From PubChem BioAssay (NCI)
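Cultured in 96-well plates, cells were exposed to test compound for 48 hours across five concentrations. Definition used: TGI = concentration required for complete inhibition of growth.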

Tests used:
Experiment in all cases: NCI-60 cell line screen, 48 h
[1] = system: DU-145 prostate
[2] = system: DMS 273 small cell lung
[3] = system: NCI-H460 lung
[4] = system: M19-MEL melanoma
[5] = system: KM20L2 colon
[6] = system: CCRF-CEM leukemia
[7] = system: DLD-1 colon
[8] = system: LXFL 529 NSCLC
[9] = system: HOP-18 NSCLC
[10] = system: SNB-78 CNS
[11] = system: XF 498 CNS
[12] = system: DMS 114 small cell lung
[13] = system: RXF-631 renal

| Structure (SMILES) | TGI [1] | TGI [2] | TGI [3] | TGI [4] | TGI [5] | TGI [6] | TGI [7] | TGI [8] | TGI [9] | TGI [10] | TGI [11] | TGI [12] | TGI [13] |
| --- | --- | --- | --- | --- | --- | --- | --- | --- | --- | --- | --- | --- | --- |
| CC(C)(C)NNc1c([N+](=O)[O-])cnn(-c2ccccc2)c1=O | 26 µM | 10.4 µM | 26.3 µM | 5.61 µM | 13.1 µM | 3.4 µM | 9.52 µM | 3.25 µM | 32 µM | 58.7 µM | 5.22 µM | – | – |
| C[C@H](NC(=O)OC1C2C=CC(O)C1CC2)c1ccccc1 (stereo not given in full) | – | > 100 µM | > 100 µM | – | > 100 µM | > 100 µM | > 100 µM | > 100 µM | > 100 µM | > 100 µM | > 100 µM | > 100 µM | – |
| O=C1/C(=C/c2ccc(O)cc2)CCC1CNc1ccc(Cl)cc1 (stereo not given) | 26.2 µM | 12.1 µM | 23 µM | 12.5 µM | 14.2 µM | 11.2 µM | 2.97 µM | 2.39 µM | 13.5 µM | 33.8 µM | – | 9.02 µM | 32.1 µM |
| CCOc1ccc(NC(=O)C2=C(C)NC(C)=C(C(=O)Nc3ccc(OCC)cc3)C2c2ccc([N+](=O)[O-])cc2)cc1 | – | – | > 100 µM | > 100 µM | 56.3 µM | 90.8 µM | > 100 µM | > 100 µM | – | > 100 µM | 70.7 µM | > 100 µM | – |
| Cc1[nH]n(C(=O)c2ccccc2O)c(=O)c1/C=C1\C(=O)C=Cc2ccccc21 | 48.6 µM | – | 9.94 µM | – | 75.6 µM | > 36.4 µM | – | 42.4 µM | – | 98.8 µM | 29 µM | 0.801 µM | – |
| COc1cc(/C=C\c2ccc(SC)cc2)cc(OC)c1OC | > 100 µM | 1.95 µM | > 49.3 µM | > 100 µM | 0.0448 µM | > 47.1 µM | > 100 µM | 5.38 µM | 11.6 µM | > 100 µM | 19.8 µM | 0.268 µM | – |
| CC(=O)OCCOCNC(=S)N/N=C(\C)c1ccco1 | – | > 100 µM | > 100 µM | > 100 µM | > 100 µM | > 100 µM | > 100 µM | > 100 µM | > 100 µM | > 100 µM | – | > 100 µM | > 100 µM |
| CCC(=O)O[C@@H]1C2C(OC(C)=O)C34COC(C)([C@@H]3C3C(C[C@]3(C)OC(C)=O)[C@@H](OC(=O)c3ccccc3)C4=O)[C@H](OC(C)=O)[C@@]2(OC(C)=O)C[C@@H]1C (stereo not given in full) | – | > 100 µM | > 100 µM | > 100 µM | > 100 µM | 36.8 µM | > 100 µM | > 100 µM | > 100 µM | 73.4 µM | – | 51.3 µM | > 100 µM |
| CCCCCCCCCCCCCC(=O)OCC1OC(OC)C(NC(=O)N(CCCl)N=O)C(O)C1O (stereo not given) | – | 47.1 µM | 25.1 µM | – | 52.2 µM | 30.2 µM | 81.3 µM | 38.8 µM | > 100 µM | 90.7 µM | 36.7 µM | 57.3 µM | 53.9 µM |
| CCOC(=O)[C@H]1Nc2ccc(O)cc2C2c3ccccc3CC21 (stereo not given in full) | – | > 100 µM | > 100 µM | > 100 µM | > 100 µM | – | > 100 µM | > 100 µM | > 100 µM | > 100 µM | – | > 100 µM | > 100 µM |
